Laboratory results reported in patent US20150246137A1, “LIPID COATED NANOPARTICLES CONTAINING AGENTS HAVING LOW AQUEOUS AND LIPID SOLUBILITIES AND METHODS THEREOF” (THE UNIVERSITY OF NORTH CAROLINA AT CHAPEL HILL, priority 2012, published 2015).
“Also recorded” adds a separate entry of the source.

How the values were obtained:
A375M cells [1] = assay: In vitro neighboring effect study (co-culture, Annexin V); format: cell-based, human; conditions: 48 h co-culture 1:10, A375M-GFP pretreated 50 μM Pt 4 h
Experimental: A375M-GFP cells (2×10^5) were seeded in 6-well plates (Corning Inc., Corning, N.Y.) 20 h before the beginning of the experiments. […] The A375M-GFP cells were mixed with A375M cells at the ratio of 1:10 (total cell number: 2×10^5) and reseeded into 6-well plates. After culturing for 48 h, the cells were stained with Hoechst 33342 (Sigma, St Louis, Mo.) and Annexin V Alexa Fluor® 568 Conjugate (Invitrogen, Carlsbad, Calif.). […] Results were processed using the Cellquest software (Becton-Dickinson).

[2] = Biodistribution of Pt in A375M tumor-bearing mice; format: in vivo; conditions: twenty-four hours post-IV injection, 1.0 mg/kg Pt
Experimental: […] Tissue samples were digested by concentrated nitric acid overnight at room temperature and processed according to the procedure reported previously the literature.119, 120 The concentration of Pt was measured using ICP-MS.

1205Lu xenograft tumors = assay: In vivo anticancer efficacy, 1205Lu xenograft; set-up: species or system nude mice; conditions: 2.0 mg/kg Pt
Experimental: Female athymic nude mice, 5-6 weeks old and weighing 18-22 g were obtained. 1205Lu xenograft tumors were developed through subcutaneous injection of approximately 5 million 1205Lu cells in female nude mice. […] Tumor growth and body weight were monitored. Tumor volume was calculated using the following formula: TV=(L×W^2)/2, with W being smaller than L. Finally, mice were sacrificed by CO2 inhalation. Tumors were collected after treatment and were formalin fixed and processed for TUNEL assay.
The tumors were fixed in 4.0% paraformaldehyde (PFA) and subsequently paraffin-embedded and sectioned. To detect apoptotic cells in tumor tissues, a TUNEL assay, using a DeadEnd™ Fluorometric TUNEL System (Promega, Madison, Wis.), was performed, following the manufacturer's protocol. Cell nuclei, which were stained with green fluorescence, are defined as TUNEL-positive nuclei. TUNEL-positive nuclei were monitored using a fluorescence microscope (Nikon, Tokyo, Japan). The cell nuclei were stained with 4, 6-diaminidino-2-phenyl-indole (DAPI) (Vectashield, Vector Laboratories, Inc., Burlingame, Calif.). To quantify TUNEL-positive cells, green-fluorescence-positive cells are counted in three images taken at 40× magnification.

A375M cells [3] = assay: Cell toxicity assay (MTS); format: cell-based, human; conditions: 48 h, read-out: IC50, growth inhibition
Experimental: (§1) A375M cells were seeded in 96-well plates at a density of 2000 cells/well and incubated in 10% FBS of DMEM containing 100 U/mL penicillin and […] streptomycin for 20 h. The medium was removed and replaced by Opti-MEM containing CDDP or LPC NPs. Forty-eight hours later, a CellTiter 96 AQueous One Solution Cell Proliferation Assay (Promega, Madison, Wis.) kit containing the tetrazolium compound MTS was used to assay cell viability according to the manufacturer's protocols. The IC50 values were calculated using Graphpad Prism 5 (Graphpad Software Inc.)

[4] = H&E histopathology of organs; format: in vivo, mice; conditions: long-term treatments
[5] = Kidney and liver function parameters; format: in vivo, mice
Excerpt: To evaluate the kidney toxicity, organs were taken for histopathological observation using H&E staining. […] We also did a pathologic examination by H&E staining of other major organs (liver, lung, spleen and heart) from mice that received long-term treatments (not shown). […] Finally, we tested the blood parameters. Levels of secreted liver enzymes (AST and ALT), and blood urea nitrogen were all unchanged after a four-dose treatment with LPC or LPI, indicating a lack of damage to the liver and the kidneys (Table 2).
After the therapeutic experiment was complete, blood samples were collected and allowed to clot for 2 h at room temperature. Serum was obtained through centrifugation for 20 min at 2,000 g. For liver and renal function experiments, the levels of aspartate aminotransferase, alanine aminotransferase, and blood urea nitrogen in the serum were measured. Major organs were collected after treatment and were formalin fixed and processed for routine H&E staining using standard methods. Images were collected using a Nikon light microscope (Nikon). After the A375M tumor reached 600 mm^3, the mice were treated with two weekly IV injections of LPC NPs at a dose of 3.0 mg/kg Pt. Seven days post the last injection, the mice were sacrificed and the tumors are assayed with TUNEL.

[6] = system: A375M melanoma xenograft tumors; assay: In vivo anticancer efficacy, A375M xenograft; set-up: species or system nude mice; conditions: weekly IV, 1.0 mg/kg Pt
Experimental: All procedures involving experimental mice are performed in accordance with the protocols conformed to the Guide for the Care and Use of Laboratory Animals (NIH publication No. 86-23, revised 1985). Female athymic nude mice, 5-6 weeks old and weighing 18-22 g were obtained. 5×10^6 A375M cells were injected subcutaneously into the mice. After 10 days, the mice were randomly divided into four groups (4-6 mice per group). The mice were treated with weekly IV injections of CDDP and LPC NPs and saline as a control. A dose of 1.0 mg/kg Pt was administered. Thereafter, tumor growth and body weight were monitored. Tumor volume was calculated using the following formula: TV=(L×W^2)/2, with W being smaller than L. Finally, mice were sacrificed using a CO2 inhalation method.
After the therapeutic experiment was complete, blood samples were collected and allowed to clot for 2 h at room temperature. […] For liver and renal function experiments, the levels of aspartate aminotransferase, alanine aminotransferase, and blood urea nitrogen in the serum were measured. […]
The tumors were fixed in 4.0% paraformaldehyde (PFA), paraffin-embedded, and sectioned. […] TUNEL-positive nuclei were monitored by using a fluorescence microscope (Nikon, Tokyo, Japan). […] TUNEL-positive cells in three slides of images taken at 40× magnification were counted to quantify apoptosis.

1205Lu cells = assay: Cell toxicity assay (MTS); format: cell-based, human; conditions: 48 h
Experimental: as §1, with “1205Lu” for “A375M”, “penicillin,” for “penicillin”, “Then, the” for “The”, “protocols.” for “protocols. The IC50 values were calculated using Graphpad Prism 5 (Graphpad Software Inc.)”

H460 cells [7] = assay: Cell cycle analysis (flow cytometry); format: cell-based, human; conditions: H460, 24 h
Experimental: H460 cells (2×10^5) were seeded in 6-well plates 24 h prior to the treatment. The formulations, IEP-PEG, IEP-PEG AA, InCl3, free liposome and free drug were added and incubated for 24 h at 37° C., humidified CO2 incubator. The cells were trypsinized and washed with PBS followed by fixation in pre-cooled 70% ethanol at −20° C. for at least 1 h. Fixed cells were washed with PBS staining buffer (BD Pharmingen, San Diego, Calif.) and incubated with RNAase (final concentration […]) at 37° C. for 30 min, followed by incubation with […] propidium iodide (PI) at room temperature for 30 min. Finally, cells were washed and suspended in PBS, and analyzed with a FACS Canto flow cytometer (BD Biosciences) to measure the PI intensity, which correlates with the DNA content in the cell cycle. A total of 20,000 events are acquired for each sample and data were analyzed with FACS Diva software (BD Biosciences).

PARP-1 = assay: Western blot analysis for PARP; format: cell-based, human; conditions: H460 cells
Experimental: Forty micrograms of protein per lane was resolved by 4%-12% SDS-PAG Electrophoresis (Invitrogen) before being transferred to polyvinylidenedifluoride (PVDF) membranes (Bio-Rad). The membranes were blocked for 1 h with 5% skim milk at room temperature and then incubated with mouse monoclonal poly (ADPribose) polymerase-1 (PARP-1) antibodies (1:500 dilution; Santa Cruz biotechnology, Inc.) and with β-actin antibody (1:4000 dilution; Santa Cruz biotechnology, Inc.) overnight at 4° C. β-actin was probed as the loading control. The membranes were washed 3 times and then incubated with a secondary antibody (1:4000 dilutions; Santa Cruz biotechnology, Inc.) at room temperature for 1 h. Goat anti-mouse secondary antibody is used for PARP and β-actin primary antibody. Finally, the membranes were washed 4 times and developed by an enhanced chemiluminescence system according to the manufacturer's instructions (Thermo scientific).

[8] = system: H460 subcutaneous xenograft; assay: Tumor growth inhibition study, H460 xenograft; format: in vivo, mice; conditions: IV every other day, EP 5 mg/kg
Experimental: A tumor growth inhibition study was completed on H460 subcutaneous xenograft mouse models. Mice were inoculated with 5×10^6 […] by subcutaneous injection. Treatment was started when the tumor volumes reached about 100-150mm^3. The mice were randomly assigned into treatment groups (n=5), and intravenously injected different formulations, including […] and free EP. Four injections were performed every other day for a total of 4 injections at an EP dose of 5 mg/kg. Tumor sizes were measured every other day with calipers across their two perpendicular diameters, and the tumor volume was calculated using the following formula: […] Body weight of each mouse is recorded every other day. Humane sacrifice of mice was performed when tumors reached 20 mm in one dimension.

H460 cells [9] = assay: In vitro cell viability assay (MTT); format: cell-based, human; conditions: NCI-H460, 36 h
Experimental: In vitro cell viability of IEP nanoparticles was determined by using the 3-[4,5-dimethylthiazol-2-yl]-2,5-diphenyltetrazolium bromide (MTT) assay. H460 cells were seeded at a density of 1×10^4 per well in96-well plates 24 hours prior to treatment. The cells were treated with different concentrations of IEP-PEG, IEP-PEG AA, free Indium chloride, free outer liposome and free etoposide phosphate for 36 h. The concentrations of indium chloride and free liposomes were maintained in equal mounts used for IEP-PEG and IEP-PEG AA. The medium was replaced with fresh medium containing 5% MTT (Biosynth Inc.) solution and incubated at 37° C. for another 4 h. The resulting formazan crystals were solubilized by adding 100 μL DMSO/Methanol (50:50) solution to each well. The absorbance at 570 nm wavelength was measured with a micro plate reader. Cell viability was calculated as the percentage of the absorbance of the treated cells to that of untreated cells.

H460 tumor = assay: TUNEL and PCNA immunohistochemistry in H460 tumors; format: in vivo, mice; conditions: three daily IV injections, 5 mg/kg
Experimental: In vivo tumor cell apoptosis was determined by TdT-mediated dUTP Nick-End Labeling (TUNEL) assay. […] Twenty-four hours after the final injection, mice were sacrificed and tumors are fixed in 4% paraformaldehyde solution for 12 h before being embedded in paraffin and sectioned at a thickness of 5 μm. The TUNEL staining was performed as recommended by the manufacturer (Promega). DAPI mounting medium (Vector Laboratories, Inc., Burlingame, Calif.) was dropped on the sections for nucleus staining. Images of TUNEL-stained tumor sections were captured with a fluorescence microscope (Nikon Corp., Tokyo, Japan). The percentage of apoptotic cells was obtained by dividing the number of apoptotic cells(TUNEL positive cells shown as green dots) from the number of total cells(blue nuclei stained by DAPI, not shown) in each microscopic field, and 10 representative microscopic fields were randomly selected in each treatment group for this analysis. Proliferation of tumor cells after the aforementioned treatments and dosing schedule was detected by immunohistochemistry, using an antibody against proliferating cell nuclear antigen (PCNA) (1:200 dilution, Santa Cruz). The immunohistochemistry was performed using a mouse-specific HRP/DAB detection IHC kit as recommended by the manufacturer (Abcam, Cambridge, Mass.). […]

caspase-3/7 = assay: Caspase activation assay; format: cell-based, human; conditions: NCI H-460 cells, 24 h
Experimental: H460 cells (2×10^5) were treated as mentioned above with all formulations. The cells were lysed with a radio-immunoprecipitation assay (RIPA) buffer that was supplemented with a protease inhibitor cocktail (Promega, Madison, Wis.). The protein lysates were collected by centrifugation at 14,000 rpm for 10 min at 4° C. Protein concentrations were determined using the BCA assay kit (Pierce Biotechnology) following the manufacturer's recommendations. Thirty micrograms protein of each sample was used to detect caspase-3/7 activity of the cell lysates by using an in vitro assay kit according to the manufacturer's instructions (Promega).

Compound	apoptotic cells in the untreated cell population (A375M cells [1])	accumulation in the tumors [2]	apoptosis in tumor (TUNEL) (1205Lu xenograft tumors) [%]	tumor growth (1205Lu xenograft tumors; weekly IV)	IC50 (A375M cells [3]) [µM]	damage of other major organs (H&E) [4]	AST and ALT functional parameters ([5]; A375M study, FIG. 33)	ALT ([5]; four-dose treatment, mean ± SD) [U/L]	AST ([5]; four-dose treatment, mean ± SD) [U/L]	BUN ([5]; four-dose treatment, mean ± SD) [mg/dL]	tumor growth [6]	IC50 (1205Lu cells) [µM]	cells at G2/M phase (H460 cells [7])	increase in the 89 kDa PARP-1 cleavage product (PARP-1)	tumor growth [8]	cell viability / toxicity (MTT) (H460 cells [9])	PCNA positive cells in tumor sections (H460 tumor)	caspases 3 and 7 activity relative to untreated control (caspase-3/7)
N.N.[Cl][Pt][Cl] [CDDP, cis-diaminedichloroplatinum(II)]	less than 6%	1.2 % of the injected dose per gram	6.3	partial effect	10.2	no toxicities in heart and lung	fall within the normal range	54.3 ± 9.7	105.7 ± 27.1	25.7 ± 0.6	ineffective; also recorded: not effective at all	12.4	–	–	–	–	–	–
COc1cc([C@@H]2c3cc4c(cc3[C@@H](O[C@@H]3O[C@@H]5CO[C@@H](C)O[C@H]5[C@H](O)[C@H]3O)[C@H]3COC(=O)[C@H]23)OCO4)cc(OC)c1OP(=O)(O)O [EP, Etoposide phosphate]	–	–	–	–	–	–	–	–	–	–	–	–	About 50%	readily detectable	minimal impact on tumor growth	dose-dependent toxicity	75-80%	4 fold
[Cl-].[Cl-].[Cl-].[In+3] [Indium chloride]	–	–	–	–	–	–	–	–	–	–	–	–	no discernable effect	no effect	–	no effect on viability	–	no effect
